This note sets out measurements from US6608027B1, “Macrocyclic peptides active against the hepatitis C virus” (Boehringer Ingelheim (Canada) Ltd, priority 1999, dated 2003).

Sequence of HCV NS3 protease type 1b (P26663 1027-1208): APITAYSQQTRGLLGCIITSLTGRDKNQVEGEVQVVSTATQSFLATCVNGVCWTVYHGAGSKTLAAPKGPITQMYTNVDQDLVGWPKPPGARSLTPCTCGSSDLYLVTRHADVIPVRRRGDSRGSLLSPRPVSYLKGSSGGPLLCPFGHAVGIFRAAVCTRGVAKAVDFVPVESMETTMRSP
T1 sequence (P26663 1658-1711): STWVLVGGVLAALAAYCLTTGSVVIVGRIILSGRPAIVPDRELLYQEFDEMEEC
T1 sequence (P26663 1027-1657): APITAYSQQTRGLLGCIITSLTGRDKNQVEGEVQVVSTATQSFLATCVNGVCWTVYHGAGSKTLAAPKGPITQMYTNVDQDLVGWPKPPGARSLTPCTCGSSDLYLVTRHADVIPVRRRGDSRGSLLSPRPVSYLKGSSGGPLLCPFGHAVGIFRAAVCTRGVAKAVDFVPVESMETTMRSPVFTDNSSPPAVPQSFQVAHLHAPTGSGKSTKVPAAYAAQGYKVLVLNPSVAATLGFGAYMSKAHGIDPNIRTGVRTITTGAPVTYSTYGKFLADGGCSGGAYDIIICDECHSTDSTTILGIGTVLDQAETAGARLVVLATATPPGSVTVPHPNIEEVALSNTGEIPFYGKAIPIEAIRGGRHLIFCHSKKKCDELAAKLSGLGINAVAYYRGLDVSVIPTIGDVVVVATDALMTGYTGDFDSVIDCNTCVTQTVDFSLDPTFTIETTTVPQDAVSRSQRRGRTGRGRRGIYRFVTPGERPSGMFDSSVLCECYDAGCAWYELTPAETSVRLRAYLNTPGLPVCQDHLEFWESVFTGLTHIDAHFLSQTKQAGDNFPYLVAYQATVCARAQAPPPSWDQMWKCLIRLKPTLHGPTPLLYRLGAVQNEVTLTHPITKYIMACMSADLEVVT

System in one data set: not given
Experiment: not given
The settings on record: from C=CCCCCC[C@H](NC(=O)OC(C)(C)C)C(=O)N1C[C@@H](O)C[C@H]1C(=O)N[C@]1(C(=O)OC)CC1C=C; rcm bond; Hoveyda's catalyst; CH2Cl2; 9.85 mM; 40.0 °C; 28.0 h.
Compound `COC(=O)[C@@]12CC1C=CCCCCC[C@H](NC(=O)OC(C)(C)C)C(=O)N1C[C@@H](O)C[C@H]1C(=O)N2` (some centres unmarked) yielded a ring closure, yield of all isomers of 89%.

Staying with this data set, now noted: from COC(=O)[C@@]1(NC(=O)[C@@H]2C[C@@H](Oc3cc(-c4ccccc4)nc4cc(OC)ccc34)CN2C(=O)[C@H](CCNC(=O)OCc2ccccc2)NC(=O)OC(C)(C)C)C[C@H]1CCCC=O; amine bond; H2, Pd(OH)2, AcOH; ethanol; 44.0 mM; 25.0 °C; 40.0 h; 2 steps.
Compound `COC(=O)[C@@]12C[C@H]1CCCCNCC[C@H](NC(=O)OC(C)(C)C)C(=O)N1C[C@H](Oc3cc(-c4ccccc4)nc4cc(OC)ccc34)C[C@H]1C(=O)N2` displayed a ring closure, yield of all isomers of 30%.

A further data set addresses T1, His-NS3-NS4AFL (full-length NS3-NS4A protein complex) (Hepatitis C virus genotype 1b, UniProt P26663).
T1 construct: made in house; host or cells: Sf21 insect cells, recombinant baculovirus (Bac-to-Bac, pFastBac HTa)
Nature of the data set: Full-length NS3-NS4A heterodimer protein fluorogenic assay. The class given is biochemical, HCV genotype 1b. The settings on record: fluorogenic assay of Example 48; no asterisk; read-out: enzyme activity (IC50 grade). An excerpt: The NS2-NS5B-3′non coding region was cloned by RT-PCR into the pCR®3 vector (Invitrogen) using RNA extracted from the serum of an HCV genotype 1b infected individual (provided by Dr. Bernard Willems, Hôpital St-Luc, Montréal, Québec, Canada). The NS3-NS4A region (NS3-NS4AFL) was then subcloned by PCR into the pFastBac™ HTa baculovirus expression vector (Gibco/BRL). The vector sequence includes a region encoding a 28-residue N-terminal sequence which contains a hexahistidine tag. The Bac-to-Bac™ baculovirus expression system (Gibco/BRL) was used to produce the recombinant baculovirus. His-NS3-NS4AFL was expressed by infecting 10^6 Sf21 cells/mL with the recombinant baculovirus at a multiplicity of infection of 0.1-0.2 at 27°. Authentic auto-proteolysis occurs during expression to produce a non covalent and stable NS3-NS4A protein complex (referred to as full-length “FL”). The infected culture was harvested 48 to 64 h later by centrifugation at 4°. The cell pellet was homogenized in 50 mM NaPO4, pH 7.5, 40% glycerol (w/v), 2 mM β-mercaptoethanol, in presence of a cocktail of protease inhibitors. His-NS3-NS4AFL was then extracted from the cell lysate with 1.5% NP-40, 0.5% Triton X-100, 0.5M NaCl, and a DNase treatment. After ultracentrifugation, the soluble extract was diluted 4-fold and bound on a Pharmacia Hi-Trap Ni-chelating column. The His-NS3-NS4AFL was eluted in a >90% pure form (as judged by SDS-PAGE), using a 50 to 400 mM imidazole gradient. The His-NS3-NS4AFL was stored at −80° in 50 mM sodium phosphate, pH 7.5, 10% (w/v) glycerol, 0.5 M NaCl, 0.25 M imidazole, 0.1% NP-40. It was thawed on ice and diluted just prior to use.
The protease activity of His-NS3-NS4AFL was assayed in 50 mM Tris-HCl, pH 8.0, 0.25 M sodium citrate, 0.01% (w/v) n-dodecyl-β-D-maltoside, 1 mM TCEP. Five (5) μM of the internally quenched substrate anthranilyl-DDIVPAbu[C(O)—O]-AMY(3-NO2)TW-OH (SEQ. ID NO.: 1) in presence of various concentrations of inhibitor were incubated with 1.5 nM of His-NS3-NS4AFL for 45 min at 23°. […] The reaction was terminated with the addition of 1M MES, pH 5.8. Fluorescence of the N-terminal product was monitored on a Perkin-Elmer LS-50B fluorometer equipped with a 96-well plate reader (excitation wavelength: 325 nm, emission wavelength: 423 nm).
The % inhibition was calculated with the following equation:
100−[(fluoinh−fluoblank)/(fluoctl−fluoblank)×100]
A non-linear curve fit with the Hill model was applied to the inhibition-concentration data, and the 50% effective concentration (IC50) was calculated by the use of SAS software (Statistical Software System; SAS Institute, Inc. Cary, N.C.).
`COc1ccc2c(O[C@@H]3C[C@H]4C(=O)N[C@]5(C(=O)O)C[C@H]5/C=C\COCCC[C@H](O)C(=O)N4C3)cc(-c3ccccc3)nc2c1` [Compound 305]: the IC50 fell in the range of 100 to 1000 nM.
On the same count and under the same terms, to `COc1ccc2c(O[C@@H]3C[C@H]4C(=O)N[C@]5(C(=O)O)C[C@H]5/C=C\CCCCCC[C@H](NC(=O)OC(C)(C)C)C(=O)N4C3)cc(-c3csc(NC(C)=O)n3)nc2c1` [Compound 307] belongs below 100 nM; to `CCOc1cc(O[C@@H]2C[C@H]3C(=O)N[C@]4(C(=O)O)C[C@H]4/C=C\CCCCC[C@H](NC(C)=O)C(=O)N3C2)c2ccc(OC)cc2n1` [Compound 308], below 100 nM; to `COc1ccc2c(O[C@@H]3C[C@H]4C(=O)N[C@]5(C(=O)O)C[C@H]5CC/C=C/CCC[C@H](NC(=O)OC(C)(C)C)C(=O)N4C3)cc(-c3ccccc3)nc2c1` [Compound 401], below 100 nM.
Regarding `COc1ccc2c(OC3CC4C(=O)NC5(C(=O)O)CC5CCC=CCCCC(NC(=O)OC(C)(C)C)C(=O)N4C3)cc(-c3ccccc3)nc2c1` (centres unmarked) [Compound 402], the IC50 lay in the range of 100 to 1000 nM.
In the case of `COc1ccc2c(OC3CC4C(=O)NC5(C(=O)O)CC5CCC=CCOCC(NC(=O)OC(C)(C)C)C(=O)N4C3)cc(-c3ccccc3)nc2c1` (centres unmarked) [Compound 403], the concentration for half-maximal inhibition (IC50) is below 100 nM.
On the same count and under the same terms, to `COc1ccc2c(O[C@@H]3C[C@H]4C(=O)N[C@]5(C(=O)O)CC5CC/C=C/CO[C@H](C)[C@H](NC(=O)OC(C)(C)C)C(=O)N4C3)cc(-c3ccccc3)nc2c1` (some centres unmarked) [Compound 404] belongs 100 to 1000 nM; to `COc1ccc2c(O[C@@H]3C[C@H]4C(=O)N[C@]5(C(=O)O)CC5CCCCCO[C@H](C)[C@H](NC(=O)OC(C)(C)C)C(=O)N4C3)cc(-c3ccccc3)nc2c1` (some centres unmarked) [Compound 407], 100 to 1000 nM.
For `COc1ccc2c(O[C@@H]3C[C@H]4C(=O)N[C@]5(C(=O)O)C[C@H]5CC/C=C/CS[C@@H](C)[C@H](NC(=O)OC(C)(C)C)C(=O)N4C3)cc(-c3ccccc3)nc2c1` [Compound 410], the IC50 is below 100 nM.
As for `COc1ccc2c(OC3CC4C(=O)NC5(C(=O)O)CC5CCC=CCSC(C)(C)C(NC(=O)OC(C)(C)C)C(=O)N4C3)cc(-c3ccccc3)nc2c1` (centres unmarked) [Compound 412], the half-inhibitory concentration (IC50) was above 1000 nM.
For `COc1ccc2c(O[C@@H]3C[C@H]4C(=O)N[C@]5(C(=O)O)CC5CCCCN(C(C)=O)CC[C@H](NC(=O)OC(C)(C)C)C(=O)N4C3)cc(-c3ccccc3)nc2c1` (some centres unmarked) [Compound 508], the IC50 was below 100 nM.
For the compound `CC(=O)Nc1nc(-c2cc(O[C@@H]3C[C@H]4C(=O)N[C@]5(C(=O)O)C[C@H]5/C=C\CCCCC[C@H](NC(=O)OC(C)(C)C)C(=O)N4C3)c3ccc(N(C)C)cc3n2)cs1` [Compound 601], the IC50 is below 100 nM.
In the case of `CC(C)(C)OC(=O)N[C@H]1CCCCC/C=C\[C@@H]2C[C@@]2(C(=O)O)NC(=O)[C@@H]2C[C@@H](Oc3cc(C(F)(F)F)nc4cc(O)ccc34)CN2C1=O` [Compound 602], the IC50 is below 100 nM.
As to `COc1ccc2c(O[C@@H]3C[C@H]4C(=O)N[C@]5(C(=O)O)C[C@H]5/C=C\CCCCC[C@H](NC(=O)OC(C)(C)C)C(=O)N4C3)cc(-c3cnco3)nc2c1` [Compound 603], the IC50 is below 100 nM.

Another data set has as its target HCV NS3 protease type 1b (Hepatitis C virus genotype 1b, UniProt P26663). Nature of the data set: Recombinant HCV NS3 protease radiometric assay. The class given is biochemical.
Conditions: not given
Here is the method:
The substrate used for the HCV NS3 protease radiometric assay, DDIVPC-SMSYTW (SEQ. ID NO.: 2), is cleaved between the cysteine and the serine residues by the enzyme. The sequence DDIVPC-SMSYTW (SEQ. ID NO.: 2) corresponds to the NS5A/NS5B natural cleavage site in which the cysteine residue in P2 has been substituted for a proline. The peptide substrate DDIVPC-SMSYTW (SEQ. ID NO.: 2) and the tracer biotin-DDIVPC-SMS[^125I-Y]TW (SEQ. ID NO.: 3) were incubated with the recombinant NS3 protease in the absence or in the presence of inhibitors. The separation of substrate from products was performed by adding avidin-coated agarose beads to the assay mixture followed by filtration. The amount of SMS[^125I-Y]TW (SEQ. ID NO.: 4) product found in the filtrate (with or without inhibitor) allowed for the calculation of the percentage of substrate conversion and of the percentage of inhibition.
Assay buffer: 50 mM Tris-HCl, pH 7.5, 30% (w/v) glycerol, 2% (w/ v) CHAPS, 1 mg/mL BSA, 1 mM TCEP (TCEP added just prior to use from a 1 M stock solution in water).
Substrate: DDIVPC-SMSYTW (SEQ. ID NO.: 2), 25 μM final concentration (from a 2 mM stock solution in DMSO stored at −20° C. to avoid oxidation).
Tracer: reduced mono-iodinated substrate(biotin-DDIVPC-SMS[^125I-Y]TW (SEQ. ID NO.: 3)) (≈1 nM final concentration).
HCV NS3 protease type 1b, 25 nM final concentration (from a stock solution in 50 mM sodium phosphate, pH 7.5, 10% glycerol, 300 mM NaCl, 5 mM DTT, 0.01% NP-40).
The assay was performed in a 96-well polypropylene plate. Each well contained:
20 μL substrate/tracer in assay buffer;
10 μL±inhibitor in 20% DMSO/assay buffer;
Blank (no inhibitor and no enzyme) and control (no inhibitor) were also prepared on the same assay plate.
The enzymatic reaction was initiated by the addition of the enzyme solution and the assay mixture was incubated for 60 min at 23° C. under gentle agitation. Twenty (20) μL of 0.025 N NaOH were added to quench the enzymatic reaction.
Twenty (20) μL of avidin-coated agarose beads (purchased from Pierce®) were added in a Millipore® MADP N65 filtration plate. The quenched assay mixture was transferred to the filtration plate, and incubated for 60 min at 23° C. under gentle agitation.
The plates were filtered using a Millipore® MultiScreen Vacuum Manifold Filtration apparatus, and 40 μL of the filtrate was transferred to an opaque 96-well plate containing 60 μL of scintillation fluid per well.
The filtrates were counted on a Packard® TopCount instrument using a ^125I-liquid protocol for 1 minute. The %inhibition was calculated with the following equation:
100−[(countsinh−countsblank)/(countsctl−countsblank)×100] […]
As to `COc1ccc2c(O[C@@H]3C[C@H]4C(=O)N[C@@]5(C(=O)O)C[C@@H]5/C=C\CCCCC[C@H](NC(=O)OC(C)(C)C)C(=O)N4C3)cc(-c3ccccc3)nc2c1` [Compound 210], the concentration for half-maximal inhibition (IC50) is above 1000 nM.

Still in this data set, the particulars now being: asterisk (*) = radiometric assay of Example 49; read-out: enzyme activity (IC50 grade), asterisk.
Consider `COc1ccc2c(O[C@@H]3C[C@H]4C(=O)N[C@]5(C(=O)O)C[C@@H]5CCCCC[C@H](NC(=O)OC(C)(C)C)C(=O)N4C3)cc(-c3ccccc3)nc2c1` [Compound 306], for which the IC50 is above 1000 nM.
As for `COc1ccc2c(O[C@@H]3C[C@H]4C(=O)N[C@]5(C(=O)O)C[C@H]5CC/C=C\CS[C@@H](C)[C@H](NC(=O)OC(C)(C)C)C(=O)N4C3)cc(-c3ccccc3)nc2c1` [Compound 411], the IC50 is above 1000 nM.
With `COc1ccc2c(O[C@@H]3C[C@H]4C(=O)N[C@]5(C(=O)O)C[C@H]5CCN(C)CCCC[C@H](NC(=O)OC(C)(C)C)C(=O)N4C3)cc(-c3ccccc3)nc2c1` [Cpd 504], the IC50 is above 1000 nM.
